# Tests used:
# [1] = molecular target: T1, Bcl‐xL (Homo sapiens, UniProt Q07817, DEL45-84); assay: Competitive fluorescence polarization (FP) binding assay: Bcl‐xL and fluorescein‐labeled Bak BH3‐derived peptide; settings: for IC50: Bcl‐xL 37 nM, Bak BH3 peptide 4 nM, triplicate, read-out: IC50 against Bcl‐xL in FP assay
# T1 construct: The protein Bcl‐xL (amino acids 1‐209, Δ45–84, kindly provided by Prof. Ho Sup Yoon); gift of Prof; Ho Sup Yoon, Nanyang Technological University, Singapore
# Method: The abilities of triazoles 11 a/c to interfere with binding between Bcl‐xL and a fluorescein‐labeled peptide derived from the pro‐apoptotic Bcl‐2 protein Bak was analyzed in a competitive binding assay based on fluorescence polarization (FP).[9, 20]
# Fluorescence polarization assays: Assays were performed essentially as described previously.[20, 30] The protein Bcl‐xL (amino acids 1‐209, Δ45–84, kindly provided by Prof. Ho Sup Yoon, Nanyang Technological University, Singapore)[31] was incubated with the test compounds for 1 h at room temperature at a protein concentration of 37 nM. Subsequently, fluorophore‐labeled Bak BH3‐derived peptide (5‐carboxyfluorescein‐[…]‐NH2 was added (final peptide concentration: 4 nM), and the fluorescence polarization was measured after another 60 min in a plate reader (Tecan Infinite F500). All experiments were carried out in triplicate. Buffer composition: 10 mM Tris pH 8.0, 50 mM NaCl, 1 mM EDTA, 0.1 % Nonidet P‐40 substitute, 1 mM DTT, and 2 % DMSO.
# [2] = molecular target: T1, Bcl‐xL; assay: Kinetic analysis by HPLC of the reaction between 12 d and 13 to generate 11 d in aqueous buffer, templated by Bcl‐xL; settings: for second‐order rate constant k of formation of 11 d from 12 d and 13: 12 d and 13 both 50 μM; for second‐order rate constant k of formation of 11 d from 12 d and 13 / rate acceleration over the reaction of 1 and benzyl azide in acetonitrile at room temperature: aqueous buffer, 37 °C
# Method: While the reactivities of cycloalkynes are typically characterized by their second‐order rate constants in the reaction with benzylazide in CD3CN, or sometimes CD3OD, the relevant reactivity of a cycloalkyne for use in iSPAAC is the reactivity between the functionalized cycloalkyne and the functionalized azide in aqueous media at the physiological temperature of 37 °C. We therefore analyzed the kinetics of the reaction between the functionalized cycloalkyne 12 d and the azide 13 in aqueous buffer by reversed‐phase (RP)‐HPLC. Incubation of 12 d and 13 (both at 50 μM) at 37 °C generated the triazole 11 d with a second‐order rate constant of 2.1±0.2×10^−3 M^−1 s^−1 (Figures 7 and S6). This represents a 450‐fold rate acceleration over the reaction of 1 and benzyl azide in acetonitrile at room temperature (k=4.7±0.1×10^−6 M^−1 s^−1). In the presence of an additional, equimolar amount of Bcl‐xL, this rate was further increased by a factor of 6 (k=1.33±0.06×10^−2 M^−1 s^−1), representing a 2800‐fold higher rate constant than observed in the standard reaction between 1 and benzyl azide in acetonitrile at room temperature. […] Of particular relevance in this context are the templated synthesis of sulfonamide‐based Bcl‐xL inhibitors using sulfonyl azides and thioacids,[23] and protein‐templated formation of 1,2,3‐triazoles from azides and terminal alkynes in the absence of Cu^I.[24]
# Kinetic analysis by HPLC: 12 d (50 μM) and 13 (50 μM) were incubated at 37 °C in the absence of Bcl‐xL, in the presence of Bcl‐xL (50 μM), and in the presence of both Bcl‐xL (50 μM) and ABT‐737 (50 μM). At the given time points, aliquots of 60 μL were diluted with 60 μL of 0.1 % TFA in 4.5 % acetonitrile/H2O and analyzed by RP‐HPLC (100 μL injection volume). The formation of 11 d was quantified by peak area using a standard curve. 1/(50×10^−6−[11 d]) [M^−1] was plotted against time. Linear regression gave the second‐order rate constant k as the slope. Experiments were carried out in triplicate. Buffer composition: 10 mM Tris pH 8.0, 50 mM NaCl, 1 mM EDTA, 0.1 % Nonidet P‐40 substitute, and 4 % DMSO.
# [3] = parameters: method as in PMID 18451170; settings: cited from earlier work
# [4] = parameters: method as in PMID 18451170; settings: cited from earlier work; remark: listed apart in the source
# T1 sequence (Q07817 with tags, fused parts or gaps DEL45-84): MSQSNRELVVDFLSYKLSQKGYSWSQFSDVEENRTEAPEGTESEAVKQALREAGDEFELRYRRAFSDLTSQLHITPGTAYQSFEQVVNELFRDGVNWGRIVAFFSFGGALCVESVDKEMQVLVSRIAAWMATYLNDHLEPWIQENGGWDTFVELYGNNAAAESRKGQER
smiles,measurement,setting,value
CN(C)CC[C@H](CSc1ccccc1)Nc1ccc(S(=O)(=O)NC(=O)Cn2nnc3c2CCCN(C(=O)c2ccccc2-c2ccc(Cl)cc2)CCC3)cc1[N+](=O)[O-] [11 a],IC50,[1],18 ± 0.7 µM
CN(C)CC[C@H](CSc1ccccc1)Nc1ccc(S(=O)(=O)NC(=O)Cn2nnc3c2CCCN(C(=O)OCc2ccccc2-c2ccc(Cl)cc2)CCC3)cc1[N+](=O)[O-] [11 c],IC50,[1],11.4 ± 0.9 µM
CN(C)CC[C@H](CSc1ccccc1)Nc1ccc(S(=O)(=O)NC(=O)Cn2nnc3c2CCCN(C(=O)OCC2=C(c4ccc(Cl)cc4)CCNC2)CCC3)cc1[N+](=O)[O-] [11 d],second‐order rate constant k of formation of 11 d from 12 d and 13,[2]; equimolar Bcl‐xL (50 μM),1.33±0.06×10^−2 M^−1 s^−1
same,rate acceleration over the reaction of 1 and benzyl azide in acetonitrile at room temperature,[2]; no Bcl‐xL,450 fold
same,second‐order rate constant k of formation of 11 d from 12 d and 13,"[2]; no Bcl‐xL, RP‐HPLC",2.1±0.2×10^−3 M^−1 s^−1
same,rate increase by Bcl‐xL (template effect),[2]; with equimolar Bcl‐xL vs without Bcl‐xL,6 factor
same,rate acceleration over the reaction of 1 and benzyl azide in acetonitrile at room temperature,[2]; with equimolar Bcl‐xL,2800 fold
same,IC50,[1],2.42 ± 0.02 µM
same,almost 5-fold higher inhibitory potency of 11 d than 11 c,"[1]; ratio of IC50 values, 11 d vs 11 c",~5 fold
O=C(c1ccccc1-c1ccc(Cl)cc1)N1CCCC#CCCC1 [12 a],activity against Bcl‐xL in FP assay (in words),"[1]; 100 μM, FP assay",inactive
same,activity against Bcl‐xL in FP assay (in words),"[1]; 100 μM, FP assay, listed as 12a",no inhibition
O=C(OCc1ccccc1-c1ccc(Cl)cc1)N1CCCC#CCCC1 [12 c],activity against Bcl‐xL in FP assay (in words),"[1]; 100 μM, FP assay",inactive
same,activity against Bcl‐xL in FP assay (in words),"[1]; 100 μM, FP assay, listed as 12c",no inhibition
O=C(OCC1=C(c2ccc(Cl)cc2)CCNC1)N1CCCC#CCCC1 [12 d],activity against Bcl‐xL in FP assay (in words),"[1]; 100 μM, FP assay",inactive
same,activity against Bcl‐xL in FP assay (in words),"[1]; 100 μM, FP assay, listed as 12d",no inhibition
CN(C)CC[C@H](CSc1ccccc1)Nc1ccc(S(=O)(=O)NC(=O)c2ccc(N3CCN(Cc4ccccc4-c4ccc(Cl)cc4)CC3)cc2)cc1[N+](=O)[O-] [ABT‐737],cell permeability in tissue culture,[3],cell‐permeable
same,oral bioavailability,[4],poor
CN(C)CC[C@H](CSc1ccccc1)Nc1ccc(S(=O)(=O)NC(=O)CN=[N+]=[N-])cc1[N+](=O)[O-] [compound 13],inhibition at 100 µM,"[1]; 100 μM, FP assay",48 ± 3%

# From PMC9827882, “Templated Generation of a Bcl‐xL Inhibitor by Isomer‐Free SPAAC Based on Azacyclonon‐5‐yne” (Chemistry (Weinheim an Der Bergstrasse, Germany), 2022)
